From BindingDB's records for doi:10.1021/jm7011563 (University of Siena, 2008)

Molecular target: T1, Type-1 angiotensin II receptor A (Rattus norvegicus, UniProt P25095)
T1 sequence (P25095 whole entry): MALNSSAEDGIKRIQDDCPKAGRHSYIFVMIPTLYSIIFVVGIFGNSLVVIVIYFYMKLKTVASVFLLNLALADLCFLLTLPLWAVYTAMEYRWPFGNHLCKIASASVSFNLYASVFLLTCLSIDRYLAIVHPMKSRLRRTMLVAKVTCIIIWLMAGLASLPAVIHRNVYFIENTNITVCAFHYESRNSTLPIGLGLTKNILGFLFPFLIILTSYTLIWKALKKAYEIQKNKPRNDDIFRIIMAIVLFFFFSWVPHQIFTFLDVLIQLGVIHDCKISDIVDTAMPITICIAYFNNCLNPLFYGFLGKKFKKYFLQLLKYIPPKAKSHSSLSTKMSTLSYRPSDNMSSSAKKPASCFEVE
Experiment: Displacement of [125I]Sar1,Ile8-Ang2 from AT1 receptor in Wistar rat hepatic membrane

IC50 [µM] | SMILES
> 10 | CCc1c2[nH]cccc-2c(=O)n1Cc1ccc(-c2ccccc2-c2nnn[nH]2)cc1
> 10 | O=c1c2ccc[nH]c-2cn1Cc1ccc(-c2ccccc2-c2nnn[nH]2)cc1
